Experimental data reported in patent publication US6476004B1, “Pharmaceutical composition” (Mitsubishi Pharma Corporation, priority 1996, dated 2002).

Test: Behaviour of the aqueous solution of the present compound
Format: physicochemical
Protocol: When 2-amino-2-[2-(4-octylphenyl)ethyl]propane-1,3-diol or a pharmaceutical acceptable acid addition salt (particularly hydrochloride) is made an aqueous solution, the solution is observed foaming and shown hemolysis and local irritation at 0.01-20% by weight. When the present compound is made the aqueous solution at a higher concentration than 0.1% by weight, the present compound is dissolved by micellization. On the other hand, in the aqueous solution at a lower concentration than 0.05% by weight, the present compound is dissolved as a solution without micellization. […] The present invention characterizes that, by adding a cyclodextrin to the said aqueous solution, the problems such as foaming, hemolysis and local irritation, as well as prevention of crystalline deposits based on micellization, are settled at the same time.

concentration of aqueous solution at which crystalline deposits are found: 0.05-0.1 % by weight
concentration of aqueous solution at which the compound is dissolved by micellization: > 0.1 % by weight
concentration of aqueous solution at which the compound is dissolved without micellization: < 0.05 % by weight
SMILES: CCCCCCCCc1ccc(CCC(N)(CO)CO)cc1.Cl [present compound, 2-amino-2-[2-(4-octylphenyl)ethyl]propane-1,3-diol hydrochloride]
concentration of aqueous solution at which foaming, hemolysis and local irritation are shown: 0.01-20 % by weight
